Assay results: patent publication US20250263370A1 (Tay Therapeutics Limited, priority 2022, published 2025)
Where two headings read alike, the source gives them in different places.

Assay: Beagle dog PK study 1 of Example 101 (propylene glycol-based formulation, IV and PO), with clinical observations
Assay type: in vivo
Conditions: for concentration at 0.083 h / concentration at 0.25 h / concentration at 0.5 h / concentration at 1 h / concentration at 2 h / concentration at 4 h / concentration at 8 h / concentration at 24 h / AUC(0-inf) / AUC(0-t) / C0 / half-life / MRT inf / Vd / Cmax / Tmax: beagle, dog, plasma; for concentration at 0.083 h / concentration at 0.25 h / concentration at 0.5 h / concentration at 1 h / concentration at 2 h / concentration at 4 h / concentration at 8 h / concentration at 24 h: dog PK study 1, IV; for MRT inf: read-out: MRTInf—obs; for Vd: read-out: Vss—obs; for animal's temperature: test animal 3 in group 1 (1 mg/kg IV)
Description: The purpose of this study was to examine the pharmacokinetics of Example 101 in beagle dogs. […] An oral PK study was also undertaken in Lewis rats—see Experimental Method C.
Body weight was recoded prior to dosing, and detailed clinical observations were made prior to dosing and throughout the study, as needed.
Subsequently, 17.320 mL Vitamin E TPGS was added, and the solution was vortexed and sonicated. Then, 51.960 mL water was added, and solution was then heated. […] Subsequently, 39.894 mL Vitamin E TPGS was added, and the solution was vortexed and sonicated. Then, 119.682 mL water was added, and the solution was heated.
Blood samples (˜0.3 mL) were collected according to a schedule (detailed below) by venipuncture of peripheral veins except for the dosing vein, and EDTA-K2 was used as anticoagulant. Within 30 minutes of collection, the samples were centrifuged at approximately 2000×g for 10 minutes at 4° C. to obtain blood plasma. The plasma samples were immediately divided into two aliquots (˜75 μL each), transferred to a cryogenic vial, and stored in a freezer at −75±15° C. prior to analysis. […]
The experiments were conducted on a Shimadzu DGU-20A5R and AB API 5500+LC/MS/MS instrument with an Agilent Poroshell EC-C18 4 μm (50×2.1 mm) column. A gradient of 95% water (0.1% formic acid)/95% acetonitrile (0.1% formic acid) was used as the mobile phase. The sample injection volume was 1 μL, and the flow rate was 0.6 mL/min. The gathered data were used for pharmacokinetic calculations using T½, C0, AUClast, AUCinf, MRTinf, CI, Vss, and Number of Points for Regression as parameters.

[1] = iv, 1 mg/kg, Test Animal 1, read-out: Plasma concentration
[2] = iv, 1 mg/kg, Test Animal 2, read-out: Plasma concentration
[3] = iv, 1 mg/kg, Test Animal 3, read-out: Plasma concentration
[4] = iv, 1 mg/kg, mean, read-out: Average plasma concentration, Mean
[5] = iv, 1 mg/kg, dog PK study 1, intravenous, Test Animal 1
[6] = iv, 1 mg/kg, dog PK study 1, intravenous, Test Animal 2
[7] = iv, 1 mg/kg, dog PK study 1, intravenous, Test Animal 3
[8] = iv, 1 mg/kg, dog PK study 1, intravenous, mean
[9] = po, 5 mg/kg, dog PK study 1, oral, Test Animal 1
[10] = po, 5 mg/kg, dog PK study 1, oral, Test Animal 2
[11] = po, 5 mg/kg, dog PK study 1, oral, Test Animal 3
[12] = po, 5 mg/kg, dog PK study 1, oral, mean
[13] = dog PK study 1, intravenous, Test Animal 1
[14] = dog PK study 1, intravenous, Test Animal 2
[15] = dog PK study 1, intravenous, Test Animal 3
[16] = dog PK study 1, intravenous, mean
[17] = dog PK study 1, oral, Test Animal 1
[18] = dog PK study 1, oral, Test Animal 2
[19] = dog PK study 1, oral, Test Animal 3

For `CNC(=O)c1[nH]c(C(=O)NC2CCC2)cc1O[C@@H](C)c1ccccc1` (stereo in doubt) [Example 101, N^5-cyclobutyl-N^2-methyl-3-(1-phenylethoxy)-1H-pyrrole-2,5-dicarboxamide], the “plasma concentration as a function of time (FIG. 1A)” value (beagle dogs, 1 mg/kg IV, group 1) was “Decreases in plasma concentration were consistent across all animals and timepoints”, the “time post-administration at which plasma concentrations began to steadily decrease (FIG. 1B)” value (beagle dogs, 5 mg/kg PO, group 2) was “approximately 1 h” and the tolerability (beagle dogs, PK studies 1 and 2, oral and intravenous) was “capable of being administered orally and intravenously and well tolerated”. It also gave a concentration at 0.083 h [1] of 1340 ng/mL, a concentration at 0.083 h [2] of 1320 ng/mL and a concentration at 0.083 h [3] of 1370 ng/mL. It also gave a concentration at 0.083 h [4] of 1340 ng/mL, a concentration at 0.25 h [1] of 1120 ng/mL and a concentration at 0.25 h [2] of 954 ng/mL. For the same molecule, the concentration at 0.25 h [3] was 1110 ng/mL, the concentration at 0.25 h [4] was 1060 ng/mL and the concentration at 0.5 h [1] was 1040 ng/mL. For the same molecule, the concentration at 0.5 h [2] was 747 ng/mL, the concentration at 0.5 h [3] was 867 ng/mL and the concentration at 0.5 h [4] was 885 ng/mL. For the same molecule, the concentration at 1 h [1] was 623 ng/mL, the concentration at 1 h [2] was 580 ng/mL and the concentration at 1 h [3] was 520 ng/mL. For the same molecule, the concentration at 1 h [4] was 574 ng/mL, the concentration at 2 h [1] was 314 ng/mL and the concentration at 2 h [2] was 265 ng/mL. For the same molecule, the concentration at 2 h [3] was 313 ng/mL, the concentration at 2 h [4] was 297 ng/mL and the concentration at 4 h [1] was 81.6 ng/mL. It also gave a concentration at 4 h [2] of 56.5 ng/mL, a concentration at 4 h [3] of 68 ng/mL and a concentration at 4 h [4] of 68.7 ng/mL. The concentration at 8 h [1] was 15.7 ng/mL, the concentration at 8 h [2] was 3.65 ng/mL and the concentration at 8 h [3] was 4.61 ng/mL. It also gave a concentration at 8 h [4] of 8 ng/mL, a concentration at 24 h [1] of 0 ng/mL and a concentration at 24 h [2] of 0 ng/mL. It also gave a concentration at 24 h [3] of 0 ng/mL, a concentration at 24 h [4] of 0 ng/mL and an AUC(0-inf) [5] of 2100 ng·h/mL. For the same molecule, the AUC(0-t) [5] was 2070 ng·h/mL, the C0 [5] was 1460 ng/mL and the half-life [5] was 1.42 h. For the same molecule, the MRT inf [5] was 1.54 h, the Vd [5] was 0.734 L/kg and the AUC(0-inf) [6] was 1720 ng·h/mL. It also gave an AUC(0-t) [6] of 1720 ng·h/mL, a C0 [6] of 1550 ng/mL and a half-life [6] of 0.976 h. It also gave an MRT inf [6] of 1.29 h, a Vd [6] of 0.747 L/kg and an AUC(0-inf) [7] of 1870 ng·h/mL. For the same molecule, the AUC(0-t) [7] was 1860 ng·h/mL, the C0 [7] was 1520 ng/mL and the half-life [7] was 0.992 h. It also gave an MRT inf [7] of 1.35 h, a Vd [7] of 0.719 L/kg and an AUC(0-inf) [8] of 1900 ng·h/mL. It also gave an AUC(0-t) [8] of 1880 ng·h/mL, a C0 [8] of 1510 ng/mL and a half-life [8] of 1.13 h. For the same molecule, the MRT inf [8] was 1.39 h, the Vd [8] was 0.733 L/kg and the AUC(0-t) [9] was 4520 ng·h/mL. It also gave a Cmax [9] of 2220 ng/mL, a Tmax [9] of 1 h and an AUC(0-inf) [10] of 2960 ng·h/mL. For the same molecule, the AUC(0-t) [10] was 2930 ng·h/mL, the Cmax [10] was 1550 ng/mL and the Tmax [10] was 0.5 h. It also gave a half-life [10] of 1.15 h, an MRT inf [10] of 1.62 h and an AUC(0-inf) [11] of 5010 ng·h/mL. The AUC(0-t) [11] was 5000 ng·h/mL, the Cmax [11] was 2240 ng/mL and the Tmax [11] was 1 h. For the same molecule, the half-life [11] was 0.845 h, the MRT inf [11] was 1.83 h and the AUC(0-inf) [12] was 3980 ng·h/mL. It also gave an AUC(0-t) [12] of 4150 ng·h/mL, a Cmax [12] of 2000 ng/mL and a Tmax [12] of 0.83 h. For the same molecule, the half-life [12] was 1 h, the MRT inf [12] was 1.73 h and the AUClast/D [13] was 2066 (ng · h/mL)/(mg/kg). The “AUC—% Extrap—obs” value [13] was 1.54%, the Cl_obs [13] was 7.94 mL/min/kg and the AUClast/D [14] was 1718 (ng · h/mL)/(mg/kg). The “AUC—% Extrap—obs” value [14] was 0.298%, the Cl_obs [14] was 9.67 mL/min/kg and the AUClast/D [15] was 1864 (ng · h/mL)/(mg/kg). The “AUC—% Extrap—obs” value [15] was 0.353%, the Cl_obs [15] was 8.91 mL/min/kg and the AUClast/D [16] was 1883 (ng · h/mL)/(mg/kg). For the same molecule, the “AUC—% Extrap—obs” value [16] was 0.73%, the Cl_obs [16] was 8.84 mL/min/kg and the AUClast/D [17] was 903 (ng · h/mL)/(mg/kg). The F [17] was 48.0%, the AUClast/D [18] was 586 (ng · h/mL)/(mg/kg) and the “AUC—% Extrap—obs” value [18] was 0.831%. The F [18] was 31.1%, the AUClast/D [19] was 1000 (ng · h/mL)/(mg/kg) and the “AUC—% Extrap—obs” value [19] was 0.232%. The F [19] was 52.8%, the AUClast/D (dog PK study 1, oral, mean) was 830 (ng · h/mL)/(mg/kg) and the “AUC—% Extrap—obs” value (dog PK study 1, oral, mean) was 0.531%. For the same molecule, the F (dog PK study 1, oral, mean) was 44.0%, the “animal's temperature” value (4 h timepoint) was 36.4 °C and the “animal's temperature” value (6 h timepoint) was 38.1 °C.
